Source: article PMC10664145, “Urinary Excretion of Mercapturic Acids of the Rodent Carcinogen Methyleugenol after a Single Meal of Basil Pesto: A Controlled Exposure Study in Humans” (Chemical Research in Toxicology, 2023)
Values joined by “and” are separate entries in the source; they are usually repeats but may differ in a detail not shown here. Equal entries are not always repeated.

Legend:
[1] = range over five models (male and female Sprague–Dawley and Fischer 344 rats, pooled human); cited from earlier work
[2] = design: method as in PMID 22445790; settings: cited from earlier work
[3] = range over 12 experimental settings; ME 100, 200 or 500 μM; calculated from published data, molar units; cited from earlier work
[4] = test system: SULT1A1; design: method as in PMID 22337896; settings: cited from earlier work
[5] = test system: DNA; settings: cited from earlier work
[6] = cited from earlier work; for urinary metabolite of ME, share of the dose / urinary metabolite of ME in urine treated with glucuronidase/sulfatase, share of the dose: rat urine 24 h after oral ME 200 mg/kg
[7] = test system: human topoisomerase I; design: method as in PMID 26542539; settings: cited from earlier work
[8] = design: method as in PMID 22610610, PMID 22445790; settings: calculated from published data; cited from earlier work
[9] = Controlled exposure study in humans: urinary excretion of E-3′-MEMA after a meal with 100 g basil pesto (1.7 mg ME), isotope-dilution LC–MS/MS; format: in vivo, human
Method: Based on the findings of the pilot investigation, a more comprehensive (“main”) exposure study was performed. The study was conducted according to the guidelines of the Declaration of Helsinki and was approved by the ethics committee of the University of Potsdam under application number 4/2019. It was carried out at the Institute of Nutritional Science (University of Potsdam), where 12 healthy volunteers (six men and six women) with conventional nutrition habits were recruited. All participants gave written informed consent. The mean age of the test group was 31.6 ± 4.6 years (range: 25–42 years), and the mean body weight was 76.4 ± 10.0 kg (range: 61–94 kg). To guarantee that urinary excretion of MEMA was solely attributed to the consumption of the basil pesto served, all volunteers were asked to avoid ME-containing food 2 days before and after the consumption of the study meal. Therefore, they received an information sheet specifying potential ME sources. After overnight fasting, the participants consumed a meal comprising 100 g of self-made pesto containing 30 g of basil (equal to 1.7 mg of ME; recipe see Table S2) and 200 g of pasta. No further restrictions were exerted. To ensure proper urine sampling, the volunteers were encouraged to drink beverages as they preferred. Urine was collected quantitatively in capped polyethylene containers prior to the controlled exposure and during the following intervals: 0–1, 1–2, 2–3, 3–4, 4–5, 5–6, 6–8, 8–10, 10–12, 12–24, 24–36, and 36–48 h. After the volumes were measured, the urine was aliquoted in two 15 mL reaction tubes per time interval and stored at −20 °C until analysis.
“System 2” was configured as follows: an HPLC 1100 (Agilent Technologies) was connected to a QTrap6500 triple quadrupole-hybrid ion trap mass spectrometer (Sciex, Darmstadt, Germany) equipped with an electrospray ionization source operating in negative mode. The chromatographic separation of the analytes was performed by ion pair chromatography on a Nucleoshell RP 18plus column (2.0 × 150 mm, 2.7 μm; Macherey-Nagel). The eluents were water containing 10 mM tributylamine and 10 mM acetic acid (eluent A) and acetonitrile (eluent B). The flow rate of the gradient (0 → 1 min: 2% eluent B; 1 → 8 min: 2 → 15% eluent B; 8 → 17.5 min: 15 → 35% eluent B; 17.5 → 18 min: 35 → 100% eluent B; 18 → 20 min: 100% eluent B; 20 → 20.1 min: 100 → 2% eluent B; 20.1 → 23 min: 2% eluent B) was 0.5 mL/min. […] The MRM mode was employed for quantitative analysis with the declustering potential and the entrance potential at −30 and −10 V, respectively. For the quantifier mass transitions of E-3′-MEMA (m/z 338.1 → 209.1) and d6-E-3′-MEMA (m/z 344.1 → 215.1), a collision energy of −20 V and a cell exit potential of −5 V were used. […]

[10] = test system: primary cultures of rat hepatocytes; settings: cited from earlier work
[11] = rat, in vivo
Method: The metabolism of ME and its isomer, MIE, was also studied in rats in vivo.[27] Urine collected over a period of 24 h after oral administration of ME (200 mg/kg) contained a total of ten metabolites (each accounting for ≥1% of the dose); together, they represented 95% of the dose. Among the microsomal metabolites described in the preceding sections, only 6-hydroxy-ME was detected in native urine (2% of the dose). In human liver microsomes, it contributed 0–3.4% to the metabolism of ME, less than that in liver microsomes from other species [calculated from data published by Cartus et al.[11] and Al-Subeihi et al.[26]]. For this reason, and as 6-hydroxy-ME is not involved in bioactivation, it is not suited as a biomarker. Eugenol and chavibetol were found in urine treated with glucuronidase/sulfatase at levels of 7 and 4% of the dose, respectively. Obviously, these metabolites are not suited as biomarkers for exposure to ME, as they may also be found after exposure to eugenol and chavibetol. […] Although in this study, 95% of the dose of ME was recovered as metabolites in urine, metabolites were additionally detected in bile. […] Glutathione (GSH) conjugates and other metabolites of the mercapturic acid pathways were not detected in that study; however, the method used (extraction of the acidified urine or bile with ether followed by gas chromatography) was not suitable for their detection.

[12] = test system: human CYPs; settings: cited from earlier work
[13] = human, in vivo; cited from earlier work
[14] = test system: DNA; settings: cited from earlier work; remark: listed apart in the source
[15] = n = 1; cited from earlier work

C=CC(O)c1ccc(OC)c(OC)c1 (stereo not drawn) [1′-hydroxy-ME]
contribution of the metabolite to ME metabolism calculated from Vmax values [1]: 36.2–50.1%
catalytic efficiency of glucuronidation, factor lower in human than in male rat liver microsomes [2]: 125 times
contribution of the metabolite to the metabolism of ME (sum of all metabolites) [3]: 36.4–69.4%
efficiency of human SULT1A1 in activation to a mutagen relative to its mouse orthologue [4]: about 3 times
DNA adduct levels in mice carrying a human SULT1A1–1A2 transgene compared to wild-type mice [5]: nine times higher
potency in induction of hepatomas and formation of DNA adducts in mouse liver, compared with ME [5]: more potent than ME

COc1ccc(CC(O)C(=O)O)cc1OC (stereo not drawn) [2-hydroxy-3-(3,4-dimethoxyphenyl)propionic acid]
urinary metabolite of ME, share of the dose [6]: 20 % of the dose

COc1ccc(CC(O)CO)cc1OC (stereo not drawn) [2′,3′-dihydroxy-2′,3′-dihydro-ME]
contribution of the metabolite to ME metabolism calculated from Vmax values [1]: 21.8–44.0%

Cc1ccc(CC(=O)O)cc1C [3,4-Dimethylphenylacetic acid]
urinary metabolite of ME, share of the dose [6]: 3 % of the dose

COc1ccc(C(=O)O)cc1OC [3,4-dimethoxybenzoic acid]
urinary metabolite of ME, share of the dose [6]: 2 % of the dose

COc1ccc(C(=O)NCC(=O)O)cc1OC [3,4-dimethoxybenzoylglycine]
urinary metabolite of ME, share of the dose [6]: 30 % of the dose

COc1ccc(C=CC(=O)NCC(=O)O)cc1OC [3,4-dimethoxycinnamoylglycine]
urinary metabolite of ME, share of the dose [6]: 24 % of the dose

COc1ccc(C(O)CC(=O)O)cc1OC (stereo not drawn) [3-hydroxy-3-(3,4-dimethoxyphenyl)propionic acid]
urinary metabolite of ME, share of the dose [6]: 2 % of the dose

COc1ccc(C=CCO)cc1OC [3′-hydroxy-MIE, 3′-hydroxymethylisoeugenol]
contribution of the metabolite to ME metabolism calculated from Vmax values [1]: 10.3–12.9%
contribution of the metabolite to the metabolism of ME (sum of all metabolites) [3]: 10.4–42.4%
share of the dose excreted as urinary metabolites that appeared to be formed via 3′-hydroxy-MIE ([6]; rats, ME 200 mg/kg): 62 % of the dose
share of the urinary metabolites that appeared to be formed via 3′-hydroxy-MIE ([6]; rats, ME 200 mg/kg): 65%

COc1ccc(/C=C/C=O)cc1OC [3′-oxo-MIE]
contribution of the metabolite to the metabolism of ME (sum of all metabolites) [3]: 0–6.8%
effect on human topoisomerase I activity in vitro [7]: inhibit

C=CCc1cc(OC)c(OC)cc1O [6-hydroxy-ME]
contribution of the metabolite to ME metabolism calculated from Vmax values [1]: 3.9–4.7%
contribution of 6-hydroxy-ME to the metabolism of ME in human liver microsomes [8]: 0–3.4%
contribution of the metabolite to the metabolism of ME (sum of all metabolites) [3]: 0–27.4%
urinary metabolite of ME, share of the dose [6]: 2 % of the dose

COc1ccc(C=CCSC[C@H](NC(C)=O)C(=O)O)cc1OC [E-3′-MEMA, N-acetyl-S-[3′-(3,4-dimethoxyphenyl)allyl]-L-cysteine]
total amount of E-3′-MEMA excreted, range among 12 participants ([9]; 1.7 mg ME in basil pesto): 3–274 ng/person
interindividual variability of E-3′-MEMA excretion, factor between highest and lowest values ([9]; 12 participants): ~80
E-3′-MEMA ratio of ME intake ([9]; individual participant, urine 0–48 h after 100 g basil pesto containing 1.7 mg ME): 33 ppm and 20 ppm and 85 ppm and 14 ppm and 1 ppm and 2 ppm and 4 ppm and 16 ppm and 6 ppm and 11 ppm
E-3′-MEMA total urinary excretion ([9]; individual participant, urine 0–48 h after 100 g basil pesto containing 1.7 mg ME, sum of all samples with concentration > LOD): 105 ng and 63 ng and 274 ng and 44 ng and 3 ng and 6 ng and 12 ng and 51 ng and 18 ng and 36 ng and 20 ng and 52 ng

C=CCc1ccc(O)c(OC)c1 [Eugenol, eugenol]
urinary metabolite of ME in urine treated with glucuronidase/sulfatase, share of the dose [6]: 7 % of the dose

C=CCc1ccc(OC)c(OC)c1 [ME, Methyleugenol]
induction of UDS by ME in the presence of the SULT1 inhibitor pentachlorophenol [10]: fully suppressed
share of the dose of ME converted via 1′-sulfooxy-ME to 3′-hydroxy-MIE (suggested) [11]: 14.3–41.7%
contribution of 1′-hydroxylation to hepatic ME metabolism at low substrate concentration [12]: 38.4%
contribution of 2′,3′-epoxidation to hepatic ME metabolism at low substrate concentration [12]: 58.8%
reduction of DNA adduct formation by ME in mouse liver by genetic knockout of SULT1A1 ([5]; mouse, in vivo): 99%
half-life of elimination of ME from serum [13]: about 90 min
time of peak serum levels of ME after the meal [13]: 5 min

COc1ccc(C=CCNc2nc3c(ncn3[C@H]3C[C@H](O)[C@@H](CO)O3)c(=O)[nH]2)cc1OC [N^2-(methylisoeugenol-3′-yl)-2′-deoxyguanosine]
human lung samples with DNA adducts present [14]: 10 out of 10
human liver samples with DNA adducts present ([14]; surgical human liver samples): 150 out of 151

C=CCc1ccc(OC)c(O)c1 [chavibetol]
urinary metabolite of ME in urine treated with glucuronidase/sulfatase, share of the dose [6]: 4 % of the dose

COc1ccc(C=CCSC[C@H](NC(C)=O)C(=O)O)cc1 [mercapturic acid of estragole, N-acetyl-S-[3′-(4-methoxyphenyl)allyl]-L-Cys]
urinary excretion of the mercapturic acid as share of intake [15]: 13.2 ppm
